ChEMBL document CHEMBL5241074, “Dual-target compounds for Alzheimer's disease: Natural and synthetic AChE and BACE-1 dual-inhibitors and their structure-activity relationship (SAR)” (Eur J Med Chem, 2021)
pIC50: −log10 of the molar value.

Key:
Acetylcholinesterase [1] = target: T1, Acetylcholinesterase (Homo sapiens, UniProt P22303); assay: Inhibition of AChE (unknown origin)
Beta-secretase 1 [2] = target: T2, Beta-secretase 1 (Homo sapiens, UniProt P56817); assay: Inhibition of BACE1 (unknown origin)
T2 sequence (P56817 whole entry): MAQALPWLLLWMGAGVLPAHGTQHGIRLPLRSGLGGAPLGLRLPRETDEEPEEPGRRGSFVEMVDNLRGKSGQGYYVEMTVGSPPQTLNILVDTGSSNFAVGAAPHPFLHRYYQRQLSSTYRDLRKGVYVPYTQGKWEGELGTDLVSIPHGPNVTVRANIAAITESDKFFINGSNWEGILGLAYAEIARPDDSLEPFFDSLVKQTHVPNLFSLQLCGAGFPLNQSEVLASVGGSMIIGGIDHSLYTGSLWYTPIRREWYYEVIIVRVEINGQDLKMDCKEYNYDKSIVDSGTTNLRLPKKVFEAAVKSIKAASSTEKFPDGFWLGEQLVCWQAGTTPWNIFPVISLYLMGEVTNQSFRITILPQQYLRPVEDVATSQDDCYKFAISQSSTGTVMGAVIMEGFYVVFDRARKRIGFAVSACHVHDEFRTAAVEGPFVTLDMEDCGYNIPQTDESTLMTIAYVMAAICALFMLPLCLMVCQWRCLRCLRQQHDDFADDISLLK

Beta-secretase 1 [3] = target: T2, Beta-secretase 1; assay: Inhibition of BACE1 (unknown origin) at 5 uM relative to control
Beta-secretase 1 [4] = target: T2, Beta-secretase 1; assay: Inhibition of BACE1 (unknown origin) at 2.5 uM relative to control
Acetylcholinesterase [5] = target: T1, Acetylcholinesterase; assay: Inhibition of AChE (unknown origin) at 100 uM relative to control
Beta-secretase 1 [6] = target: T2, Beta-secretase 1; assay: Inhibition of BACE1 (unknown origin) at 100 uM relative to control
Acetylcholinesterase [7] = target: T1, Acetylcholinesterase; assay: Inhibition of human recombinant AchE
Acetylcholinesterase [8] = target: Acetylcholinesterase (Electrophorus electricus, UniProt O42275); assay: Inhibition of Electrophorus electricus AchE
Sequence of Acetylcholinesterase (Electrophorus electricus, UniProt O42275) (O42275 whole entry): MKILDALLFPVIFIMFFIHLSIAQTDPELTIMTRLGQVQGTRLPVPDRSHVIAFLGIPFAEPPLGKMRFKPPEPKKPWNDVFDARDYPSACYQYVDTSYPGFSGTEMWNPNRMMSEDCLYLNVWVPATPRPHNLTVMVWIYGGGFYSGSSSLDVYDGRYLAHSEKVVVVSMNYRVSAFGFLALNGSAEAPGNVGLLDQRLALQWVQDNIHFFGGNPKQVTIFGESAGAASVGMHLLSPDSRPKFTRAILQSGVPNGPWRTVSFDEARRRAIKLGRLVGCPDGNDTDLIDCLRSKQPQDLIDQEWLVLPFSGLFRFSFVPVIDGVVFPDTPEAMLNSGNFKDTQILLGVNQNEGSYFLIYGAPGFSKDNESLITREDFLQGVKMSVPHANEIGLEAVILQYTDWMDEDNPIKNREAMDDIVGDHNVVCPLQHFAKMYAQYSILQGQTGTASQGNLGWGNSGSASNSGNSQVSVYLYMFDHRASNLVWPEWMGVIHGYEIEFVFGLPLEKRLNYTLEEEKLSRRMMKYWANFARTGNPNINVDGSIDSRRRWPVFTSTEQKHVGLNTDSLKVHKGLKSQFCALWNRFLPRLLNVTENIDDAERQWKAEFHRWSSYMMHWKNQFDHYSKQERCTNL

Beta-secretase 1 [9] = target: T2, Beta-secretase 1; assay: Inhibition of human recombinant BACE1

T1 sequence (P22303 whole entry): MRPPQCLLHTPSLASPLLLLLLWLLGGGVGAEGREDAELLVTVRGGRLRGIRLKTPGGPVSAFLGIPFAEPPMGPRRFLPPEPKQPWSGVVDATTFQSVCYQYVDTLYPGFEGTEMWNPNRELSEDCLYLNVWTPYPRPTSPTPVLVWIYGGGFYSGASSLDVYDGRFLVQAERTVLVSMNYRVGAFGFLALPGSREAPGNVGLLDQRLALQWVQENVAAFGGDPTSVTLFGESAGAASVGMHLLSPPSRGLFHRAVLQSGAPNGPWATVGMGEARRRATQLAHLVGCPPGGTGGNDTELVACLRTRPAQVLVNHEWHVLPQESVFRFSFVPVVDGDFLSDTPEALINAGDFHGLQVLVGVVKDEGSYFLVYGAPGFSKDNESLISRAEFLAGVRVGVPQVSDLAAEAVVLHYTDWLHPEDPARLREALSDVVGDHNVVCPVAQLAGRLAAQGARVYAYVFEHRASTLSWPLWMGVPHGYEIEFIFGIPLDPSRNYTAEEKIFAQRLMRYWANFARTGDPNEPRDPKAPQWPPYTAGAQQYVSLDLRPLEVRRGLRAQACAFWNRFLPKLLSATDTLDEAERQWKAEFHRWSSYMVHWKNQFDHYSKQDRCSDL

| SMILES | pIC50 (Acetylcholinesterase [1]) | pIC50 (Beta-secretase 1 [2]) | also measured |
| --- | --- | --- | --- |
| COc1cc2c(cc1OC)CC(CC1CCN(CCCNc3c4c(nc5cc(Cl)ccc35)CC3C=C(C)CC4C3)CC1)C2 (single isomer, unassigned; (-)) [listing 1 of 2 here] | 8.58 |  |  |
| O=C(/C=C/c1ccc(O)c(O)c1)O[C@@H]1[C@H](O)C[C@@](O)(C(=O)O)C[C@H]1OC(=O)/C=C/c1ccc(O)c(O)c1 | 5.67 | 5.48 |  |
| COc1ccc(/C=C/C(=O)c2cc(I)c(Cl)cc2O)cc1 | 7.93 | 7.86 |  |
| COc1ccc(C(=O)N2Cc3ccc(N4C(=O)c5ccccc5C4=O)cc3CC2=O)cc1 | 7.09 | 8.77 |  |
| COc1cc(O)c(C(=O)/C=C/c2ccc(F)cc2)cc1I | 8.03 | 7.60 |  |
| CC12CC(c3c(O)cc(-c4cc5ccc(O)cc5o4)cc3O)CC3c4ccc(O)cc4OC31C2 (configuration not stated) | < 3.70 | 5.98 |  |
| CCC1=CC2Cc3nc4cc(Cl)ccc4c(NCCCN4CCC(CC5Cc6cc(OC)c(OC)cc6C5)CC4)c3C(C1)C2 (stereo in doubt; (-)-36b) [listing 1 of 2 here] |  |  | inhibition (Beta-secretase 1 [3]): 14.9% |
| Cc1cc2c(c(C)c1CCO[C@@H]1O[C@H](CO)[C@@H](O)[C@H](O)[C@H]1O)C(=O)[C@@H](C)[C@H]2O | 5.04 |  |  |
| COc1ccccc1C(=O)N1Cc2ccc(N3C(=O)c4ccccc4C3=O)cc2CC1=O | 7.09 | 8.53 |  |
| O=c1c(/C=N/Nc2ccc(C(F)(F)F)cc2)coc2c1ccc1oc(-c3cccc(F)c3)cc12 | 4.98 | 4.80 |  |
| C[C@@H]1O[C@@H](O[C@@H]2[C@@H](O)[C@H](OCCc3ccc(O)c(O)c3)O[C@H](CO)[C@H]2OC(=O)/C=C/c2ccc(O)c(O)c2)[C@H](O)[C@H](O)[C@H]1O [ACETOSIDE] |  | 8.20 |  |
| OCCc1ccc(O)c(O)c1 [HYDROXYTYROSOL] |  | 7.46 |  |
| COc1ccc(NC(=O)C2CCN(C(=O)c3ccccc3)CC2)cc1OC | 8.39 | 7.74 |  |
| COc1ccc(-c2cc3cc4c(=O)c(/C=N/Nc5ccc(C(F)(F)F)cc5)coc4cc3o2)cc1 | 5.27 | 4.60 |  |
| O=C(NCCCCCCCNc1c2c(nc3cc(Cl)ccc13)CCCC2)c1ccc2nc(-c3ccc(Cl)cc3)c3c(c2c1)OCCC3 |  |  | inhibition (Beta-secretase 1 [4]): 14.5% |
| COc1cc(/C=C/c2nnc(-c3ccc(F)cc3F)o2)ccc1O | 9.72 | 9.20 |  |
| Oc1cc(O)cc(Oc2c(O)cc(O)c3c2Oc2c(cc(O)c(-c4c(O)cc5c(c4O)Oc4c(Oc6cc(O)cc(O)c6)c(O)cc(O)c4O5)c2O)O3)c1 | 5.34 |  |  |
| O=c1c(O)c(-c2ccc(F)cc2)oc2cc(F)c(I)cc12 | 8.49 | 7.49 |  |
| Cc1cc2c(c(C)c1CCO[C@@H]1O[C@H](CO)[C@@H](O)[C@H](O)[C@H]1O)C(=O)[C@H](C)C2 | 5.59 | 4.74 |  |
| COc1cc(/C=C/c2nnc(-c3ccc(C(F)(F)F)cc3)o2)ccc1O | 10.17 | 9.59 |  |
| COc1cc(/C=C/c2nnc(-c3ccc(F)cc3)o2)ccc1O | 9.55 | 9.32 |  |
| O=c1c(/C=N/Nc2ccc(C(F)(F)F)cc2)coc2cc3oc(-c4cccc(F)c4)cc3cc12 | 5.12 | 4.76 |  |

| SMILES | pIC50 (Acetylcholinesterase [1]) | pIC50 (Beta-secretase 1 [2]) | also measured |
| --- | --- | --- | --- |
| CC(C)=CCC/C(C)=C/Cc1c(O)ccc2cc(-c3cc(O)cc(O)c3CC=C(C)C)oc12 [MULBERROFURAN D] | 4.64 | 5.43 |  |
| COc1cc2c(cc1OC)CC(CC1CCN(CCCNc3c4c(nc5cc(Cl)ccc35)CC3C=C(C)CC4C3)CC1)C2 (racemic) [listing 1 of 2 here] | 8.27 |  |  |
| COc1cc2c(cc1CC=C(C)C)C(=O)CC(c1ccc(O)cc1)O2 (configuration not stated) |  |  | inhibition (Acetylcholinesterase [5]): 80%; inhibition (Beta-secretase 1 [6]): 20% |
| COc1cc(O)c(C(=O)/C=C/c2ccc(O)cc2)cc1CC=C(C)C |  |  | inhibition (Acetylcholinesterase [5]): 46%; inhibition (Beta-secretase 1 [6]): 68% |
| CC(C)=CCc1cc2c(cc1O)O[C@H](c1ccc(O)cc1)CC2=O |  |  | inhibition (Acetylcholinesterase [5]): 34%; inhibition (Beta-secretase 1 [6]): 14% |
| O=C(CCc1ccc2nc(-c3ccccc3)c3c(c2c1)OCCC3)NCCCCCCNc1c2c(nc3cc(Cl)ccc13)CCCC2 |  |  | inhibition (Beta-secretase 1 [4]): 19.6% |
| C[C@@H]1O[C@@H](OC[C@H]2O[C@@H](Oc3c(-c4ccc(O)c(O)c4)oc4cc(O)cc(O)c4c3=O)[C@H](O)[C@@H](O)[C@@H]2O)[C@H](O)[C@H](O)[C@H]1O [RUTIN] | 3.95 | 8.42 |  |
| CCC1=CC2Cc3nc4cc(Cl)ccc4c(NCCCN4CCC(CC5Cc6cc(OC)c(OC)cc6C5)CC4)c3C(C1)C2 (stereo in doubt; (-)-36b) [listing 2 of 2 here] | 8.41 |  |  |
| O=C(/C=C/c1ccc(F)cc1)c1cc(I)c(Br)cc1O | 7.96 | 8.33 |  |
| CCCCCCCCCCCC1=CC(=O)C=CC1=O |  |  | pIC50 (Acetylcholinesterase [7]): 5.10; pIC50 (Acetylcholinesterase [8]): 5.60; pIC50 (Beta-secretase 1 [9]): 5.68 |
| O=c1c(O)c(-c2ccc(O)c(O)c2)oc2cc(O)cc(O)c12 [QUERCETIN] | 5.54 |  |  |
| Cc1cc2c(c(C)c1CCO[C@@H]1O[C@H](CO)[C@@H](O)[C@H](O)[C@H]1O)C(=O)[C@H](C)[C@H]2O | 5.42 | 5.01 |  |
| COc1cc(/C=C/c2nnc(-c3ccc(OC(F)(F)F)cc3)o2)ccc1O | 10.04 | 9.68 |  |
| COc1cc(/C=C/c2nnc(-c3ccc(Cl)cc3Cl)o2)ccc1O | 9.66 | 9.06 |  |
| CCC1=CC2Cc3nc4cc(Cl)ccc4c(NCCN4CCC(CC5Cc6cc(OC)c(OC)cc6C5)CC4)c3C(C1)C2 (single isomer, unassigned; (-)) | 7.54 |  | inhibition (Beta-secretase 1 [3]): 12.5% |
| COc1cc2c(cc1OC)CC(CC1CCN(CCCNc3c4c(nc5cc(Cl)ccc35)CC3C=C(C)CC4C3)CC1)C2 (racemic) [listing 2 of 2 here] |  |  | inhibition (Beta-secretase 1 [3]): 29.1% |
| O=c1c(/C=N/Nc2ccc(C(F)(F)F)cc2)coc2c1ccc1oc(-c3ccc(Cl)cc3)cc12 | 5.27 | 4.87 |  |
| COc1ccc(NC(=O)C2CCN(C(=O)c3ccccc3)CC2)cc1 | 8.01 | 7.72 |  |
| COc1cc(O)cc(-c2cc3ccc(O)c(C/C=C(\C)CCC=C(C)C)c3o2)c1CC=C(C)C | < 3.70 |  |  |
| O=C(NCCCCCCCCNc1c2c(nc3cc(Cl)ccc13)CCCC2)c1ccc2nc(-c3ccc(Cl)cc3)c3c(c2c1)OCCC3 |  |  | inhibition (Beta-secretase 1 [4]): 18.5% |
| O=c1c(O)c(-c2ccc(Cl)cc2)oc2cc(F)c(I)cc12 | 8.46 | 7.78 |  |
| CC(C)=CCC/C(C)=C/CC/C(C)=C\Cc1c(O)cc(O)c(CC=C(C)C)c1-c1cc2ccc(O)cc2o1 | 4.86 | 5.69 |  |

| SMILES | pIC50 (Acetylcholinesterase [1]) | pIC50 (Beta-secretase 1 [2]) | also measured |
| --- | --- | --- | --- |
| O=C1Cc2cc(N3C(=O)c4ccccc4C3=O)ccc2CN1C(=O)c1ccccc1 | 7.18 | 8.23 |  |
| COc1ccc(/C=C/C(=O)c2cc(I)c(OC)cc2O)cc1 | 7.96 | 7.15 |  |
| Cc1cccc(C(=O)N2Cc3ccc(N4C(=O)c5ccccc5C4=O)cc3CC2=O)c1 | 7.59 | 8.35 |  |
| CCC1=CC2Cc3nc4cc(Cl)ccc4c(NCCCN4CCC(CC5Cc6cc(OC)c(OC)cc6C5)CC4)c3C(C1)C2 (racemic) [listing 1 of 2 here] | 8.20 |  |  |
| COc1ccccc1NCC1CCN(Cc2ccccc2)CC1 | 6.80 | 6.56 |  |
| COc1ccc(NCC2CCN(Cc3ccccc3)CC2)cc1 | 6.78 | 6.60 |  |
| C/C=C1/C(O[C@@H]2O[C@H](CO)[C@@H](O)[C@H](O)[C@H]2O)OC=C(C(=O)OC)C1CC(=O)OCCc1ccc(O)c(O)c1 (some centres not stated) |  | 5.56 |  |
| COc1ccc(-c2oc3cc(Br)c(I)cc3c(=O)c2O)cc1 |  | 7.80 |  |
| CC(C)=CCc1c(O)ccc(C(=O)/C=C/c2ccc(O)cc2)c1O |  |  | inhibition (Acetylcholinesterase [5]): 83%; inhibition (Beta-secretase 1 [6]): 34% |
| O=c1c(/C=N/Nc2ccc(C(F)(F)F)cc2)coc2cc3oc(-c4cccc(Cl)c4)cc3cc12 | 4.74 | 4.48 |  |
| COc1ccc(-c2oc3cc(OC)c(I)cc3c(=O)c2O)cc1 | 8.14 | 7.65 |  |
| CCC1=CC2Cc3nc4cc(Cl)ccc4c(NCCCN4CCC(CC5Cc6cc(OC)c(OC)cc6C5)CC4)c3C(C1)C2 (racemic) [listing 2 of 2 here] |  |  | inhibition (Beta-secretase 1 [3]): 18% |
| COc1ccc(NCC2CCN(Cc3ccccc3)CC2)cc1OC | 6.84 | 6.61 |  |
| COc1ccccc1NC(=O)C1CCN(C(=O)c2ccccc2)CC1 | 8.07 | 7.73 |  |
| C/C(=C\C1=CCN(C(=O)CCc2ccccc2)C(=O)C1)N1C(=O)c2ccccc2C1=O | 7.26 | 8.68 |  |
| O=C(CCc1ccc2nc(-c3ccccc3)c3c(c2c1)OCCC3)NCCCCCCCNc1c2c(nc3cc(Cl)ccc13)CCCC2 | 7.94 |  | inhibition (Beta-secretase 1 [4]): 34.4% |
| COc1cc2c(cc1OC)CC(CC1CCN(CCNc3c4c(nc5cc(Cl)ccc35)CC3C=C(C)CC4C3)CC1)C2 (configuration not stated) | 7.89 |  | inhibition (Beta-secretase 1 [3]): 24.6% |
| O=C(CCc1ccc2nc(-c3ccccc3)c3c(c2c1)OCCC3)NCCCCCCCCNc1c2c(nc3cc(Cl)ccc13)CCCC2 |  |  | inhibition (Beta-secretase 1 [4]): 77.8% |
| COc1cc2c(cc1OC)CC(CC1CCN(CCCNc3c4c(nc5cc(Cl)ccc35)CC3C=C(C)CC4C3)CC1)C2 (single isomer, unassigned; (-)) [listing 2 of 2 here] |  |  | inhibition (Beta-secretase 1 [3]): 30.8% |
| CC(C)=CCCC1(C)C=Cc2c(ccc3cc(-c4cc(O)cc(O)c4CC=C(C)C)oc23)O1 (configuration not stated) | 5.34 |  |  |
| Cc1cc2c(c(C)c1CCO[C@@H]1O[C@H](CO)[C@@H](O)[C@H](O)[C@H]1O)C(=O)C(C)(C)[C@H]2O | 4.56 | 4.97 |  |
| COc1cc(/C=C/c2nnc(-c3ccc(Cl)cc3)o2)ccc1O | 9.48 | 9.20 |  |
